Results taken from patent US20060281791A1, “Methods of increasing proliferation of adult mammalian cardiomyocytes through p38 map kinase inhibition” (CHILDREN'S MEDICAL CENTER CORPORATION, priority 2005, published 2006).
Where “and” joins values, the source holds several entries; their conditions need not be identical. Identical values can stand only once.

System: neonatal rat cardiomyocytes
Assay: cDNA microarray analysis (Affymetrix Rat Expression Set 230), x-fold changes of clustered genes
Assay type: cell-based
Settings: 72 h, experiments (1) and (2)
Protocol: Animal experiments were performed in accordance with guidelines of Children's Hospital, Boston and UCLA. Ventricular cardiomyocytes from fetal (E19), 2-day-old (P2) and adult (250-350 g) Wistar rats (Charles River) were isolated as described with minor modifications (Engel et al. 1999; Engel et al. 2003). After digestion of fetal or neonatal hearts (0.14 mg/ml collagenase II (Invitrogen), 0.55 mg/ml pancreatin (Sigma)) cells were cultured in DMEM/F12 (GIBCO) containing 3 mM Na-pyruvate, 0.2% BSA, 0.1 mM ascorbic acid (Sigma), 0.5% Insulin-Transferrin-Selenium (100×), penicillin (100 U/ml), streptomycin (100 μg/ml), and 2 mM L-glutamine (GIBCO). Adult cardiomyocytes were cultured for 1 day in standard medium (DMEM, 25 mM Hepes, 5 mM taurine, 5 mM creatine, 2 mM L-carnitine (Sigma), 20 U/ml insulin (GIBCO), 0.2% BSA, penicillin (100 U/ml), and streptomycin (100 μg/ml)). Cells were stimulated in culture medium without BSA containing 2 mM L-glutamine. Neonatal and adult cardiomyocytes were initially cultured for 48 h in the presence of 20 μM cytosine β-D-arabinofuranoside (araC, Sigma) and 5% horse serum before stimulation to prevent proliferation of non-myocytes. Adult cardiomyocytes were incubated another 3 days with araC during stimulation. Neonatal cardiomyocytes were stimulated every day with growth factors for BrdU and H3P analyses (FGF1 and NRG-1-1β at 50 ng/ml, IL-1β at 100 ng/ml, R&D Systems, all diluted in 0.1% BSA/PBS). SB203580 and LY294002 (Calbiochem) was added every day. Adult cardiomyocytes were stimulated with fresh medium and SB203580 every 3 days.
RNA of neonatal cardiomyocytes was prepared 72 h after stimulation using Trizol (Invitrogen). RT-PCR was performed following standard protocols (Supplemental Table S4). Affymetrix technology was applied using the Rat Expression Set 230.
To determine the effect of p38 inhibition on cardiomyocyte differentiation and proliferation, a specific inhibitor of p38α and p38β, SB203580, was used and evaluated using cDNA microarray analyses using neonatal rat cardiomyocytes. […] Expression changes of a subset of genes were validated by RT-PCR.
Stimulation of neonatal cardiomyocytes with FGF1 induces fetal gene expression. To determine if FGF1, in combination with p38 inhibition, can reverse differentiation and induce cell cycle re-entry, we repeated cDNA microarray analyses (Supplemental Table S1). […]

## FGF1: growth factor FGF1 (R&D Systems)
  Actn1 expression, x-fold change: 1.9 x-fold
  CXC chemokine LIX expression, x-fold change: 0.4 x-fold
  Cdc42 effector protein expression, x-fold change: 0.8 x-fold
  Cfl1 expression, x-fold change: 0.6 x-fold
  Connexin 40 expression, x-fold change: 0.8 x-fold
  Edg2 expression, x-fold change: 0.4 x-fold
  Enigma expression, x-fold change: 2.3 x-fold
  Epha3 expression, x-fold change: 0.5 x-fold
  Epidermal growth factor-like protein, T16 precursor expression, x-fold change: 0.3 x-fold
  Fgf16 expression, x-fold change: 0.8 x-fold
  Figf expression, x-fold change: 0.3 x-fold
  Kruppel-like factor 4 expression, x-fold change: 1.1 x-fold
  Lgals5 expression, x-fold change: 2.9 x-fold
  Maf-2 expression, x-fold change: 0.5 x-fold
  Mtss1 expression, x-fold change: 0.5 x-fold
  Nr2f2/COUP-TFII expression, x-fold change: 0.8 x-fold
  Nudt4 expression, x-fold change: 0.8 x-fold
  Osteoglycin expression, x-fold change: 0.4 x-fold
  Osterix expression, x-fold change: 0.6 x-fold
  PTTG1 expression, x-fold change: 1.4 x-fold
  Protein tyrosine phosphatase, receptor type, D (Ptprd) expression, x-fold change: 0.5 x-fold
  RPTPK expression, x-fold change: 0.4 x-fold
  Rbp2 expression, x-fold change: 0.6 x-fold
  Rdc1 expression, x-fold change: 0.5 x-fold
  Rev-ErbA-beta expression, x-fold change: 0.7 x-fold
  RhoGAP expression, x-fold change: 0.8 x-fold
  Septin 6 expression, x-fold change: 1.9 x-fold
  Serine-threonine specific protein phosphatase, GL subunit expression, x-fold change: 0.7 x-fold
  Seta expression, x-fold change: 1.0 x-fold
  TRAF4 associated factor 1 expression, x-fold change: 1.9 x-fold
  Troponin I, slow isoform expression, x-fold change: 0.6 x-fold
  Vcam1 expression, x-fold change: 0.3 x-fold
  Wisp2 expression, x-fold change: 0.8 x-fold
Listed as FGF
  (BEM)-3 expression, x-fold change: 1.4 x-fold and 1.6 x-fold
  AGTR1 expression, x-fold change: 0.4 x-fold and 0.5 x-fold
  Acta1 expression, x-fold change: 4.8 x-fold and 6.3 x-fold
  Actinin expression, x-fold change: 1.8 x-fold and 1.5 x-fold
  Adrenergic, alpha 1B-, receptor expression, x-fold change: 0.8 x-fold and 0.7 x-fold
  Adrenomedullin precursor expression, x-fold change: 0.4 x-fold and 0.6 x-fold
  Agtr1a expression, x-fold change: 0.6 x-fold and 0.4 x-fold
  Anillin expression, x-fold change: 3.3 x-fold and 1.9 x-fold
  Ankyrin 2, neuronal expression, x-fold change: 0.6 x-fold and 0.7 x-fold
  Ankyrin repeat domain-containing SOCS box protein 12 expression, x-fold change: 0.5 x-fold and 0.6 x-fold
  Apoptosis protein MA-3 expression, x-fold change: 0.8 x-fold and 0.7 x-fold
  Arrestin domain containing 3 expression, x-fold change: 0.3 x-fold and 0.5 x-fold
  Aurora B expression, x-fold change: 1.5 x-fold and 1.9 x-fold
  BMP2 expression, x-fold change: 6.0 x-fold and 3.4 x-fold
  BMP6 precursor expression, x-fold change: 1.4 x-fold and 1.7 x-fold
  BOC expression, x-fold change: 0.5 x-fold and 0.6 x-fold
  Bcl2a1 expression, x-fold change: 0.4 x-fold and 0.6 x-fold
  Bmp3 expression, x-fold change: 0.5 x-fold and 0.6 x-fold
  Bub1 expression, x-fold change: 1.4 x-fold and 1.2 x-fold
  CABC1 expression, x-fold change: 0.6 x-fold and 0.5 x-fold
  CDKN3/KAP/CDI1 expression, x-fold change: 1.7 x-fold and 2.0 x-fold
  CENP-E expression, x-fold change: 1.3 x-fold and 1.7 x-fold
  CISH expression, x-fold change: 0.4 x-fold and 0.5 x-fold
  CKS2 expression, x-fold change: 1.7 x-fold and 1.4 x-fold
  CREB5 expression, x-fold change: 1.3 x-fold and 1.8 x-fold
  CSRP1 expression, x-fold change: 1.9 x-fold and 1.8 x-fold
  CXCL4 expression, x-fold change: 0.7 x-fold and 0.6 x-fold
  Cacalmodulin-dependent protein kinase phosphatase expression, x-fold change: 0.9 x-fold and 1.3 x-fold
  Cadherin 13 expression, x-fold change: 1.5 x-fold and 1.9 x-fold
  Calponin 1 expression, x-fold change: 6.4 x-fold and 4.9 x-fold
  Casein kinase I delta expression, x-fold change: 1.3 x-fold and 0.9 x-fold
  Catenin, alpha-1 expression, x-fold change: 1.6 x-fold and 1.5 x-fold
  Cdc2a expression, x-fold change: 1.7 x-fold and 1.8 x-fold
  Cdc20 expression, x-fold change: 1.9 x-fold and 1.7 x-fold
  Cdc25B expression, x-fold change: 1.6 x-fold and 1.3 x-fold
  Cdca3 expression, x-fold change: 1.3 x-fold and 1.4 x-fold
  Cish2 expression, x-fold change: 0.6 x-fold and 0.8 x-fold
  Cish3 expression, x-fold change: 0.8 x-fold and 0.9 x-fold
  Cish expression, x-fold change: 0.4 x-fold and 0.5 x-fold
  Connexin 43 expression, x-fold change: 0.9 x-fold and 0.8 x-fold
  Csrp3/MLP expression, x-fold change: 2.7 x-fold and 4.2 x-fold
  Ctgf expression, x-fold change: 1.9 x-fold and 1.6 x-fold
  Cxcl12 expression, x-fold change: 0.5 x-fold and 0.3 x-fold
  Cyclin A2 expression, x-fold change: 1.8 x-fold and 1.1 x-fold
  Cyclin B1 expression, x-fold change: 1.2 x-fold and 1.0 x-fold
  Cyclin B expression, x-fold change: 1.9 x-fold and 1.8 x-fold
  Cyclin D1 expression, x-fold change: 4.2 x-fold and 3.3 x-fold
  DAPK1 expression, x-fold change: 0.6 x-fold and 0.5 x-fold
  DUSP6 expression, x-fold change: 2.8 x-fold and 4.4 x-fold
  Ddr2 expression, x-fold change: 0.5 x-fold and 0.8 x-fold
  Desmin expression, x-fold change: 2.2 x-fold and 1.8 x-fold
  Diaphanous homolog 3 expression, x-fold change: 2.5 x-fold and 1.9 x-fold
  Dok-5 expression, x-fold change: 2.7 x-fold and 2.6 x-fold
  Dri42 expression, x-fold change: 0.5 x-fold and 0.3 x-fold
  ETV5/ERM/PEA3 expression, x-fold change: 20.4 x-fold and 11.2 x-fold
  Ect2 expression, x-fold change: 1.9 x-fold and 2.5 x-fold
  Egfl3 expression, x-fold change: 0.4 x-fold and 0.5 x-fold
  Emr1 expression, x-fold change: 0.6 x-fold and 0.4 x-fold
  EphA2 expression, x-fold change: 2.2 x-fold and 1.7 x-fold
  Ephrin B3 expression, x-fold change: 0.7 x-fold and 0.8 x-fold
  FCEG expression, x-fold change: 0.7 x-fold and 0.5 x-fold
  FHL1 expression, x-fold change: 7.3 x-fold and 5.1 x-fold
  FHOS2 expression, x-fold change: 0.7 x-fold and 0.8 x-fold
  Fancd2 expression, x-fold change: 0.7 x-fold and 1.1 x-fold
  Fbln5 expression, x-fold change: 0.4 x-fold and 0.6 x-fold
  Fcgr2 expression, x-fold change: 0.5 x-fold and 0.6 x-fold
  Fcgr3 expression, x-fold change: 0.5 x-fold and 0.6 x-fold
  Flt4/VEGFR3 expression, x-fold change: 1.8 x-fold and 2.5 x-fold
  Frizzled-related protein 2 expression, x-fold change: 0.5 x-fold and 0.3 x-fold
  Fzd1 expression, x-fold change: 0.7 x-fold and 0.8 x-fold
  G0S2-like protein expression, x-fold change: 0.5 x-fold and 0.6 x-fold
  GADD45a expression, x-fold change: 1.8 x-fold and 1.3 x-fold
  GADD45 gamma expression, x-fold change: 3.0 x-fold and 2.9 x-fold
  GDF15 expression, x-fold change: 1.6 x-fold and 2.6 x-fold
  GOA1B expression, x-fold change: 2.9 x-fold and 3.0 x-fold
  Gab1 expression, x-fold change: 0.6 x-fold and 0.7 x-fold
  Ghr expression, x-fold change: 0.9 x-fold and 0.8 x-fold
  Glypican (GPC)-3 expression, x-fold change: 0.4 x-fold and 0.5 x-fold
  Growth hormone receptor expression, x-fold change: 0.7 x-fold and 0.8 x-fold
